Results as given in publication PMC5529566, “The cryo-EM structure of gastric H^+,K^+-ATPase with bound BYK99, a high-affinity member of K^+-competitive, imidazo[1,2-a]pyridine inhibitors” (Scientific Reports, 2017).
“And” between values parts separate entries of the source, which are not always exact repeats. Equal values may be shown once.

Columns and labels:
[1] = target: H^+,K^+-ATPase Y799A (Sus scrofa, UniProt P19156, Y800A); assay: ATPase assay, Y799A mutant
[2] = target: H^+,K^+-ATPase D137A (Sus scrofa, UniProt P19156, D138A); assay: ATPase assay, D137A mutant
[3] = target: H^+,K^+-ATPase D137L (Sus scrofa, UniProt P19156, D138L); assay: ATPase assay, D137L mutant
[4] = target: H^+,K^+-ATPase A335C/C813A (Sus scrofa, UniProt P19156, A336C/C814A); assay: ATPase assay, A335C/C813A mutant
[5] = target: H^+,K^+-ATPase D136L (Sus scrofa, UniProt P19156, D137L); assay: ATPase assay, D136L mutant
[6] = target: H^+,K^+-ATPase N138D (Sus scrofa, UniProt P19156, N139D); assay: ATPase assay, N138D mutant
[7] = target: H^+,K^+-ATPase L809F (Sus scrofa, UniProt P19156, L810F); assay: ATPase assay, L809F mutant
[8] = target: H^+,K^+-ATPase Y140L (Sus scrofa, UniProt P19156, Y141L); assay: ATPase assay, Y140L mutant
[9] = target: H^+,K^+-ATPase D137F (Sus scrofa, UniProt P19156, D138F); assay: ATPase assay, D137F mutant
H^+,K^+-ATPase D137F, sequence (P19156 whole entry D138F): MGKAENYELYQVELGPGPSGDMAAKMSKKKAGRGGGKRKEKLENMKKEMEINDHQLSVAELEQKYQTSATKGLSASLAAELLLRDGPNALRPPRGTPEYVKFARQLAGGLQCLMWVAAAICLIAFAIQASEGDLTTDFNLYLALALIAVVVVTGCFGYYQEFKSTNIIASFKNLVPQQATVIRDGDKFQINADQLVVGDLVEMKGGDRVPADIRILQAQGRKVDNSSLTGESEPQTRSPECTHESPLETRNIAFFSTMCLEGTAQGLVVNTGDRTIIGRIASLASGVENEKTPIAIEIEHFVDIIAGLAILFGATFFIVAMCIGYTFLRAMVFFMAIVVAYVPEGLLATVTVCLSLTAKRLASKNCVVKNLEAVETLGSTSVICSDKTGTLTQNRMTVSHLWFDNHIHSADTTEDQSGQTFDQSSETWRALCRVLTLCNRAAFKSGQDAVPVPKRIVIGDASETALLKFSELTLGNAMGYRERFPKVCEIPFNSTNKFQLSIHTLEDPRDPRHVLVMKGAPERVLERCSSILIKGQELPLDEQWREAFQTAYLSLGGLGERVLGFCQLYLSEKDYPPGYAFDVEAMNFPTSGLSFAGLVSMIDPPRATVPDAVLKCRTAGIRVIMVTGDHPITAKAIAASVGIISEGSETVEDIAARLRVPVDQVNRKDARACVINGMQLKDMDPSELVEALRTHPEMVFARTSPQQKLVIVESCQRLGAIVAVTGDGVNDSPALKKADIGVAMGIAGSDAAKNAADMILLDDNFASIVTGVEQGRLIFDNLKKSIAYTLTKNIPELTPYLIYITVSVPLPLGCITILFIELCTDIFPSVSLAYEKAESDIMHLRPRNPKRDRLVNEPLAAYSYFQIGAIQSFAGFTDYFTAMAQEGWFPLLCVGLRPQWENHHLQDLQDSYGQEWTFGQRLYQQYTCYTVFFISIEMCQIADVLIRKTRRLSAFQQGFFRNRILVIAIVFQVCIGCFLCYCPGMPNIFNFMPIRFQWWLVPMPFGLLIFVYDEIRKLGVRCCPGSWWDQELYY
H^+,K^+-ATPase D137F, sequence (P18434 whole entry partner): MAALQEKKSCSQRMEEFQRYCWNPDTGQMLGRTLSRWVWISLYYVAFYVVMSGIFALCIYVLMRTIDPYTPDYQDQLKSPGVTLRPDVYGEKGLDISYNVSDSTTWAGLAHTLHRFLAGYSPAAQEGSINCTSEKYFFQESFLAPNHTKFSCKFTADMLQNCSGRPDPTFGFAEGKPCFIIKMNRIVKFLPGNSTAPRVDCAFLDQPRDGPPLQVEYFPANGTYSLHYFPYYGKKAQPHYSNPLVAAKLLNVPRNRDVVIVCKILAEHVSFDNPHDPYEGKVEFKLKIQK

[10] = target: H^+,K^+-ATPase D137N/N138D (Sus scrofa, UniProt P19156, D138N/N139D); assay: ATPase assay, D137N/N138D mutant; conditions: D137N/N138D
[11] = target: H^+,K^+-ATPase A335G (Sus scrofa, UniProt P19156, A336G); assay: ATPase assay, A335G mutant
[12] = target: H^+,K^+-ATPase D136I (Sus scrofa, UniProt P19156, D137I); assay: ATPase assay, D136I mutant
[13] = target: H^+,K^+-ATPase Y140I (Sus scrofa, UniProt P19156, Y141I); assay: ATPase assay, Y140I mutant
H^+,K^+-ATPase Y140I, sequence (P19156 whole entry Y141I): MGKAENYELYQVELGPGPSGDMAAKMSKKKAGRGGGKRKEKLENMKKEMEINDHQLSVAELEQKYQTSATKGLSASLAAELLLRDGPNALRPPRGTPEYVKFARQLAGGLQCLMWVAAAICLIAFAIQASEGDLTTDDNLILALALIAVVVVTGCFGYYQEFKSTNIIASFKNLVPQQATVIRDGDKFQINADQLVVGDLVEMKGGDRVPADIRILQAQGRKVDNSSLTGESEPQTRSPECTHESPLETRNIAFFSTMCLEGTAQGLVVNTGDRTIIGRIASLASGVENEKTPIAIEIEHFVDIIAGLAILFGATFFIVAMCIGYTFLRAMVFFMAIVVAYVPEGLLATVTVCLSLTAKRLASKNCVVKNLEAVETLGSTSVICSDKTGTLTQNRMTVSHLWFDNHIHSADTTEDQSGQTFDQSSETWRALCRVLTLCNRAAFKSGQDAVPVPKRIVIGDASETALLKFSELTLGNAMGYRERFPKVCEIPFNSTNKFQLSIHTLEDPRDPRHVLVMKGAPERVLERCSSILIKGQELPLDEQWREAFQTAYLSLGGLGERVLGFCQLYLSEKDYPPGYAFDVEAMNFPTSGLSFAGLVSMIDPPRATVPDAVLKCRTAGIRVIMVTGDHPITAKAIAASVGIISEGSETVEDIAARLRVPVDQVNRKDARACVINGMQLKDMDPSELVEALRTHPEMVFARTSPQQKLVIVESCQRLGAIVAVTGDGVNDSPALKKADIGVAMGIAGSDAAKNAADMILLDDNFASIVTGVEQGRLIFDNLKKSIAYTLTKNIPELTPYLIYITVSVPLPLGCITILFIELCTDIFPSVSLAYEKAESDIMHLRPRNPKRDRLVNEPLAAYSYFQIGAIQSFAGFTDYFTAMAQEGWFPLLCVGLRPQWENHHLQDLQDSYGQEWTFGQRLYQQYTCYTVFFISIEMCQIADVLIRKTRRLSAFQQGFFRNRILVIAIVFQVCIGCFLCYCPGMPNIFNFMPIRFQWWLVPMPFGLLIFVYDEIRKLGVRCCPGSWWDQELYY
H^+,K^+-ATPase Y140I, sequence (P18434 whole entry partner): as the sequence (P18434 whole entry partner) above

[14] = target: T1, H^+,K^+-ATPase WT (Sus scrofa, UniProt P19156); assay: K^+-competitive inhibition of H^+,K^+-ATPase activity, 96-well ATPase assay, wild-type; format: biochemical, pig; conditions: WT
T1 construct: made in house; host or cells: HEK293S GnT1- cells (BacMam baculovirus transduction); permeabilised membrane fractions

[15] = target: H^+,K^+-ATPase L139I (Sus scrofa, UniProt P19156, L140I); assay: ATPase assay, L139I mutant
H^+,K^+-ATPase L139I, sequence (P19156 whole entry L140I): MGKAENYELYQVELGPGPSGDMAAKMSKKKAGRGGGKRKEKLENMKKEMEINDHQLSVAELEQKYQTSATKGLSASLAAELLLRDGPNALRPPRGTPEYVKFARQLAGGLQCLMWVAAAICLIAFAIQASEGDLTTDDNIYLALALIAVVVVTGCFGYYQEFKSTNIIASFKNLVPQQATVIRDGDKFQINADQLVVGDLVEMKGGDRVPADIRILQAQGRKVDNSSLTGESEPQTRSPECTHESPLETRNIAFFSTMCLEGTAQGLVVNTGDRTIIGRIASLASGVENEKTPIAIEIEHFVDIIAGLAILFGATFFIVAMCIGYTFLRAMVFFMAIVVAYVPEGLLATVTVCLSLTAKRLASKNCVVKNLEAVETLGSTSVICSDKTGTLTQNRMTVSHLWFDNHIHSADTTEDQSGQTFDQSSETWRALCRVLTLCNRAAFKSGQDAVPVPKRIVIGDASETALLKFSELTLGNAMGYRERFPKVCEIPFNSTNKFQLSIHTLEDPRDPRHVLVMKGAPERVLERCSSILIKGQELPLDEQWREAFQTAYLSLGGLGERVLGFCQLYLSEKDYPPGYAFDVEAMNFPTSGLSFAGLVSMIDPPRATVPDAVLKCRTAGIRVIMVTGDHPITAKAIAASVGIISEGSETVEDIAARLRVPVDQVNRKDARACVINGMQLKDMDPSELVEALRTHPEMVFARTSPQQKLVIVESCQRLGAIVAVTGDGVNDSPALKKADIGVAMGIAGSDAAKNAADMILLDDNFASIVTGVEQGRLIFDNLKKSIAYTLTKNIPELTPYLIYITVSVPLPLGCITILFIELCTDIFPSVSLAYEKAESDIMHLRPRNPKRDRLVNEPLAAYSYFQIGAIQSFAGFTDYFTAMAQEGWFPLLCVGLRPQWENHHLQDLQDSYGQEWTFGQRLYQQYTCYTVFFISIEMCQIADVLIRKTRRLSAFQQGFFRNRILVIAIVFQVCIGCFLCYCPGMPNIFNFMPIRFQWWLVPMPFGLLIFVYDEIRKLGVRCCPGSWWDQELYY
H^+,K^+-ATPase L139I, sequence (P18434 whole entry partner): as the sequence (P18434 whole entry partner) above

[16] = target: H^+,K^+-ATPase L139F (Sus scrofa, UniProt P19156, L140F); assay: ATPase assay, L139F mutant
[17] = target: H^+,K^+-ATPase L139A (Sus scrofa, UniProt P19156, L140A); assay: ATPase assay, L139A mutant
[18] = target: H^+,K^+-ATPase N138F (Sus scrofa, UniProt P19156, N139F); assay: ATPase assay, N138F mutant
[19] = target: H^+,K^+-ATPase (Sus scrofa, UniProt P19156); assay: Dose-dependent inhibition of H^+,K^+-ATPase activity in the presence of 10 mM KCl
[20] = target: H^+,K^+-ATPase Y140A (Sus scrofa, UniProt P19156, Y141A); assay: ATPase assay, Y140A mutant
[21] = target: H^+,K^+-ATPase N138I (Sus scrofa, UniProt P19156, N139I); assay: ATPase assay, N138I mutant
[22] = target: H^+,K^+-ATPase N138L (Sus scrofa, UniProt P19156, N139L); assay: ATPase assay, N138L mutant
[23] = target: H^+,K^+-ATPase L141I (Sus scrofa, UniProt P19156, L142I); assay: ATPase assay, L141I mutant
[24] = target: H^+,K^+-ATPase D136F (Sus scrofa, UniProt P19156, D137F); assay: ATPase assay, D136F mutant
[25] = target: H^+,K^+-ATPase N138A (Sus scrofa, UniProt P19156, N139A); assay: ATPase assay, N138A mutant
[26] = target: H^+,K^+-ATPase D136A (Sus scrofa, UniProt P19156, D137A); assay: ATPase assay, D136A mutant
[27] = target: H^+,K^+-ATPase D137I (Sus scrofa, UniProt P19156, D138I); assay: ATPase assay, D137I mutant
[28] = target: H^+,K^+-ATPase Y140F (Sus scrofa, UniProt P19156, Y141F); assay: ATPase assay, Y140F mutant
[29] = target: H^+,K^+-ATPase Y799F (Sus scrofa, UniProt P19156, Y800F); assay: ATPase assay, Y799F mutant
[30] = target: T2, H^+,K^+-ATPase D137E (Sus scrofa, UniProt P19156, D138E); assay: ATPase assay, D137E mutant; format: biochemical, pig
T2 construct: made in house; host or cells: HEK293S GnT1- cells (BacMam baculovirus transduction), membrane fraction
T2 sequence (P19156 whole entry D138E): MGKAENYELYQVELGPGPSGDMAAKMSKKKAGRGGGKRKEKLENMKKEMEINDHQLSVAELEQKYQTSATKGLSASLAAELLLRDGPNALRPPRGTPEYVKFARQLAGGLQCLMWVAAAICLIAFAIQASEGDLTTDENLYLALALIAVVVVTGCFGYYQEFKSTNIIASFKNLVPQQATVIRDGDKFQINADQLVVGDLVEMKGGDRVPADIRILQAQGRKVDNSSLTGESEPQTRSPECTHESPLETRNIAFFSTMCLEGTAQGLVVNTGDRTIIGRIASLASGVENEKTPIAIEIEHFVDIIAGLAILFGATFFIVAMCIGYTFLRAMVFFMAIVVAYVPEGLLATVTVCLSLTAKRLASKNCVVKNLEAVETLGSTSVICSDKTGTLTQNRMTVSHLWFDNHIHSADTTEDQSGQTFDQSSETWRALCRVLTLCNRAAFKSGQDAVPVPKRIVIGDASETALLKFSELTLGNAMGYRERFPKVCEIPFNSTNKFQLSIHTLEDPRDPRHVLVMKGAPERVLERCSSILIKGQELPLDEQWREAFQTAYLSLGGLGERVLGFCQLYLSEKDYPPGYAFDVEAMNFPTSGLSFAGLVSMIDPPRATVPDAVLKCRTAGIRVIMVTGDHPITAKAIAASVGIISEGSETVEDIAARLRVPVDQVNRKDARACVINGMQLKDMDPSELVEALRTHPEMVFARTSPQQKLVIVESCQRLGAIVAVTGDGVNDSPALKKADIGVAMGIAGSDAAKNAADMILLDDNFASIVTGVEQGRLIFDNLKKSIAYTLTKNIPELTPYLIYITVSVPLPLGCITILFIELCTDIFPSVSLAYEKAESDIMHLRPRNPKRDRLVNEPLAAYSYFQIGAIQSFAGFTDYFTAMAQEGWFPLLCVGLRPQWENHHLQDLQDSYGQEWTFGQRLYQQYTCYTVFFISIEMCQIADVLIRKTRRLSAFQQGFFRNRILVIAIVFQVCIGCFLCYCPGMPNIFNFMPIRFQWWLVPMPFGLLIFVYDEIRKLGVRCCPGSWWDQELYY
T2 sequence (P18434 whole entry partner): as the sequence (P18434 whole entry partner) above

[31] = target: H^+,K^+-ATPase D137N (Sus scrofa, UniProt P19156, D138N); assay: ATPase assay, D137N mutant
[32] = test system: H^+,K^+-ATPase L809F; conditions: cited from earlier work
[33] = test system: H^+,K^+-ATPase Y799A; parameters: method as in PMID 14699149; conditions: Y799A vs wild-type; cited from earlier work
[34] = test system: H^+,K^+-ATPase Y799F; parameters: method as in PMID 14699149; conditions: cited from earlier work
[35] = target: H^+,K^+-ATPase A335C/C813A; parameters: method as in PMID 12379118; conditions: cited from earlier work
[36] = pKa and protonation of imidazo[1,2-a]pyridine; format: physicochemical; conditions: at pH 7.0 of the ATPase assays

In the case of `Cc1cn2cccc(OCc3ccccc3)c2n1` [SCH-CN^−], the Ki [1] is reported as 81 ± 15 µM, the “-fold increase in K i compared with wild-type” value (from here on “-fold increase in K i”) ([1]; Y799A) is reported as 25 fold and the Ki [2] is reported as 28 ± 2 µM. The “-fold increase in K i” value ([2]; D137A) was 8.8 fold, the Ki [3] was 32 ± 6 µM and the “-fold increase in K i” value ([3]; D137L) was 10 fold. The Ki [4] was 71 ± 10 µM, the “-fold increase in K i” value ([4]; A335C/C813A) was 22 fold and the Ki [5] was 3.3 ± 0.2 µM. For the same compound, the “-fold increase in K i” value ([5]; D136L) was 1.0 fold, the Ki [6] was 2.6 ± 0.2 µM and the “-fold increase in K i” value ([6]; N138D) was 0.8 fold. The Ki [7] was 98 ± 12 µM, the “-fold increase in K i” value ([7]; L809F) was 31 fold and the Ki [8] was 2.7 ± 0.2 µM. For the same compound, the “-fold increase in K i” value ([8]; Y140L) was 0.8 fold, the Ki [9] was 47 ± 6 µM and the “-fold increase in K i” value ([9]; D137F) was 15 fold. For the same compound, the “-fold increase in K i” value [10] was 7.2 fold, the Ki ([10]; global fitting) was 23 ± 20 µM and the Ki [11] was 1 ± 0.1 µM. The “-fold increase in K i” value ([11]; A335G) was 0.3 fold, the Ki [12] was 4.1 ± 0.3 µM and the “-fold increase in K i” value ([12]; D136I) was 1.3 fold. The Ki [13] was 2.1 ± 0.2 µM, the “-fold increase in K i” value ([13]; Y140I) was 0.7 fold and the “-fold increase in K i” value [14] was 1.0 fold. The Ki ([14]; global fitting, mean ± SEM) was 3.2 ± 0.3 µM, the Ki [15] was 1.1 ± 0.1 µM and the “-fold increase in K i” value ([15]; L139I) was 0.3 fold. The Ki [16] was 6.6 ± 0.5 µM, the “-fold increase in K i” value ([16]; L139F) was 2.1 fold and the Ki [17] was 3.3 ± 0.3 µM. For the same compound, the “-fold increase in K i” value ([17]; L139A) was 1.0 fold, the Ki [18] was 52 ± 9 µM and the “-fold increase in K i” value ([18]; N138F) was 16 fold. The IC50 [19] was 110 µM, the Ki [20] was 7.3 ± 1 µM and the “-fold increase in K i” value ([20]; Y140A) was 2.3 fold. For the same compound, the Ki [21] was 3.7 ± 0.7 µM, the “-fold increase in K i” value ([21]; N138I) was 1.2 fold and the Ki [22] was 14 ± 2 µM. The “-fold increase in K i” value ([22]; N138L) was 4.4 fold, the Ki [23] was 2.4 ± 0.2 µM and the “-fold increase in K i” value ([23]; L141I) was 0.8 fold. The Ki [24] was 2.9 ± 0.1 µM, the “-fold increase in K i” value ([24]; D136F) was 0.9 fold and the Ki [25] was 4.2 ± 0.5 µM. For the same compound, the “-fold increase in K i” value ([25]; N138A) was 1.3 fold, the Ki [26] was 5.1 ± 0.4 µM and the “-fold increase in K i” value ([26]; D136A) was 1.6 fold. For the same compound, the Ki [27] was 39 ± 7 µM, the “-fold increase in K i” value ([27]; D137I) was 12 fold and the Ki [28] was 3.7 ± 0.2 µM. For the same compound, the “-fold increase in K i” value ([28]; Y140F) was 1.2 fold, the Ki [29] was 18 ± 2 µM and the “-fold increase in K i” value ([29]; Y799F) was 5.6 fold. The “-fold increase in K i” value [30] was 1.4 fold, the Ki ([30]; high H^+-ATPase activity, K i' determined by K m/V max plot) was 4.4 ± 0.4 µM and the Ki [31] was 120 ± 30 µM. For the same compound, the “-fold increase in K i” value ([31]; D137N) was 38 fold.

In the case of `Cc1nc2c(OCc3ccccc3)cccn2c1CC#N` [SCH28080], the fold reduced affinity ([32]; L809F vs wild-type, previously reported) is listed as “more than 90 fold”, the Ki ([32]; L809F) is listed as 6.15 µM and the “fold low apparent affinity (IC 50)” value [33] is listed as ~ 100 fold and 100 fold. For the same compound, the “effect on affinity (in words)” value [34] was “negligible effects”, the Ki [35] was > 40 µM and the “affinity (in words)” value [35] was “almost no affinity”. The protonation [36] was “approximately 2.5%”.
